These are literature values, as cited in patent US8895779B2 (BioAmber Inc., priority 2010, dated 2014).

SMILES strings stand for the structures.

The conditions of this data set: Table 1, Run 1, acid charged.

Take `O=C(O)CCCCC(=O)O` [AA, adipic acid]: the pKa1 is recorded as 4.43.
